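Method: 48-hour compound exposure of cells in 96-well plates, five concentrations, linear interpolation of endpoints. TGI is the concentration that stops growth completely.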 Where a SMILES comes first, the peptide text is derived from it. [ ]: non-standard residue; d: D form. The star is where a group is joined. NMeF = CN[C@@H](Cc1ccccc1)C(=O)O; NMeV = CN[C@H](C(=O)O)C(C)C; Boc = CC(C)(C)OC(=O)*; OBn = c1ccc(CO*)cc1
Legend:
Assay in all cases: NCI tumour cell line growth inhibition, 48 h
M19-MEL melanoma = test system: M19-MEL melanoma
RXF-631 renal = test system: RXF-631 renal
KM20L2 colon = test system: KM20L2 colon
XF 498 CNS = test system: XF 498 CNS
HOP-18 NSCLC = test system: HOP-18 NSCLC
MDA-N = test system: MDA-N
DMS 114 small cell lung = test system: DMS 114 small cell lung
DMS 273 small cell lung = test system: DMS 273 small cell lung
SNB-78 CNS = test system: SNB-78 CNS

SMILES	TGI (M19-MEL melanoma)	TGI (RXF-631 renal)	TGI (KM20L2 colon)	TGI (XF 498 CNS)	TGI (HOP-18 NSCLC)	TGI (MDA-N)	TGI (DMS 114 small cell lung)	TGI (DMS 273 small cell lung)	TGI (SNB-78 CNS)
CC(C(=O)O)/C(=C\c1ccc2c(c1)OCO2)C(=O)O (configuration not stated)	> 100 µM	> 100 µM	> 100 µM	> 100 µM	> 100 µM	> 100 µM	> 100 µM	> 100 µM	–
COC(=O)C1=C(CS(=O)c2ccc([N+](=O)[O-])cc2[N+](=O)[O-])ON(C)C1c1ccccc1 (configuration not stated)	> 100 µM	> 100 µM	> 72.6 µM	> 100 µM	> 89.7 µM	–	> 66.4 µM	> 80.6 µM	> 96.5 µM
COc1ccc(NC(=O)CC(=O)N2N=C(N(CCC#N)c3cccc(C)c3)CC2c2ccccc2)cc1 (configuration not stated)	> 100 µM	–	> 100 µM	–	> 100 µM	–	–	> 100 µM	> 100 µM
COc1ccc(-c2cc(-c3cc(C)ccc3O)[nH]c(=O)n2)cc1	> 100 µM	> 100 µM	> 100 µM	–	> 100 µM	–	> 100 µM	> 100 µM	> 100 µM
CCC1CC(C)=CCN1S(=O)(=O)c1ccc(C)cc1 (configuration not stated)	–	–	36 µM	–	–	–	53.7 µM	67.9 µM	–
Brc1ccccc1C=NC12CC3CC(CC(C3)C1)C2	> 100 µM	> 100 µM	> 100 µM	> 100 µM	> 100 µM	> 73.8 µM	> 100 µM	> 100 µM	> 100 µM
COc1ccc(C(=O)CC(=O)C(=O)Nc2ccc(C)c(C)c2)cc1	> 100 µM	> 100 µM	> 100 µM	–	> 100 µM	–	> 58.5 µM	> 100 µM	> 100 µM
CCCCCNC(=O)c1c(O)[nH]c(=S)[nH]c1=O	> 100 µM	> 100 µM	> 100 µM	–	–	–	> 100 µM	–	> 100 µM
CCCC(=O)Nc1ccc2c(c1)CN1C(=O)c3ccccc3C1=N2	–	–	–	–	–	> 100 µM	–	–	–
CCOC(=O)C(=O)Nc1c(C)cccc1C(C)C	> 100 µM	> 100 µM	> 100 µM	> 100 µM	> 100 µM	–	> 100 µM	> 100 µM	> 100 µM
CCOC(=O)C(C(=O)OCC)=C1N[C@H](C(=O)OCC)CS1	> 100 µM	> 100 µM	> 100 µM	> 100 µM	> 100 µM	–	–	–	> 100 µM
COc1ccccc1C(N)c1ccccc1 (configuration not stated)	> 100 µM	–	> 100 µM	–	> 100 µM	–	> 100 µM	> 100 µM	> 100 µM
CCC(c1ccc2cc(O)ccc2c1)C(C)(C)C(=O)O (configuration not stated)	–	–	–	–	–	> 100 µM	–	–	–
CCOC(=O)N[C@@H]1C2CC(=O)C(O2)[C@@H]1OC (some centres not stated)	> 100 µM	–	> 100 µM	–	> 100 µM	–	–	–	> 100 µM
COC(=O)CS(=O)c1ccccc1 (configuration not stated)	> 100 µM	–	–	> 100 µM	–	–	56.5 µM	84.4 µM	> 100 µM
N#CCCSC(=S)C1CCCC1=N (configuration not stated)	–	–	–	–	–	> 100 µM	–	–	–
c1ccc(CN2CCCCC(Sc3ccccc3)CC2)cc1 (configuration not stated)	12.9 µM	–	76.3 µM	–	> 100 µM	–	44.6 µM	25.1 µM	80.1 µM
Cc1cc(=O)oc2c(OS(C)(=O)=O)c(OS(C)(=O)=O)ccc12	–	–	–	–	–	> 100 µM	–	–	–
COc1ccc(C(=O)C(C(=O)C(=O)NC2C3CC4CC(C3)CC2C4)c2ccc(OC)cc2)cc1 (configuration not stated)	> 100 µM	–	> 100 µM	–	> 100 µM	–	> 100 µM	> 100 µM	> 100 µM
CCCCCCCCCCCCCCCCCC(=O)OCC(C[As](=O)(O)O)OC(=O)CCCCCCCCCCCCCCCCC (configuration not stated)	> 100 µM	> 100 µM	> 100 µM	53 µM	> 100 µM	–	34.3 µM	> 100 µM	> 100 µM
CC(C)[C@@H](C(=O)N1CCC[C@H]1C(=O)OCc1ccccc1)N(C)C(=O)[C@H](C(C)C)N(C)C(=O)[C@H](Cc1ccccc1)N(C)C(=O)[C@H](NC(=O)OC(C)(C)C)C(C)C (Boc-[dV][NMeF][NMeV][NMeV]P-OBn)	> 100 µM	–	> 100 µM	> 100 µM	> 100 µM	–	> 100 µM	> 100 µM	> 100 µM
